Series [1] in a line: Pharmacokinetics in mice, intravenous administration. To be noted: for AUC: 0 h to last, parent; for V: volume of distribution during elimination phase; for half-life / CLint scaled / clearance: male; for half-life: C57/BL6, iv, mouse plasma; for CLint scaled / clearance: C57/BL6, mouse, plasma, iv; for clearance: read-out: CLtot; for DHA detected as a metabolite: mouse PK studies, i.v. and p.o., LC-MS/MS. The format is in vivo, male C57/BL6 mice. The protocol:
(i) Animals. Healthy male C57/BL6 mice each weighing approximately 25 g were used. The mice maintained at the University of Cape Town animal facility were housed in 27 by 21 by 18 cm cages, under controlled environmental conditions at 22 ± 2°C and a 12-h light/dark cycle. Humidity was monitored and ranged between 55 and 70%. Food and water were available ad libitum. Mice were acclimatized to their environment for 7 days before experiments were initiated.
(iii) Intravenous drug administration. For the intravenous formulations, each of artemether, the amino-artemisinins 5 to 10, and 11-aza-artemisinin 11 (2.5 mg) was dissolved in 1 ml DMSO/PEG/PPG (1:3:6, vol/vol). DMSO was added first, followed by PEG and then PPG. The resulting solutions in the mixture of DMSO, PEG, and PPG (1:3:6, vol/vol) were administered intravenously at a dose of 10 mg/kg (n = 3) via injection into the dorsal penile vein. Mice were anesthetized with an intraperitoneal injection of a saline ketamine/xylazine solution. This consisted of 1 ml ketamine (100 mg/ml), 0.5 ml xylazine (20 mg/ml), and 8.5 ml PBS solution to make a total volume of 10 ml. Dosage of anesthetic preparation for mice was […]; this amounts to a dose of 80 mg/kg ketamine and 10 mg/kg xylazine. The total volume of administration was dose adjusted to 10 mg/kg with an approximate volume of 80 μl, according to the weight of each animal on the morning of dosing. Blood samples for the amino-artemisinins 5 to 8 and 10 were collected via tail-bleeding predose and at 0.08, 0.25, 0.5, 1, 2, and 4 h, and blood samples for the phenylurea 9 and 11-aza-artemisinin 11 were collected at 0.08, 0.5, 1, 2, 4, 8, and 24 h postdose. Samples were all placed in 0.5 ml lithium heparin microvials to prevent blood coagulation. The samples were immediately centrifuged at 5,590 × g for 5 min and the plasma was transferred to new microvials. The plasma samples were stored at −80°C.
Sample extraction. […] The organic layer was then transferred and evaporated under a gentle stream of nitrogen at room temperature for 30 min. The dried samples were reconstituted in mobile phase, and a 5 μl sample was injected for LC-MS/MS analysis. The only exception was the arylurea 10, for which no liquid-liquid extraction was conducted; instead, the 200 μl acetonitrile solution was evaporated under a gentle stream of nitrogen at room temperature. The dried sample was reconstituted in the mobile phase, and a 5 μl sample was injected for LC-MS/MS analysis. The plasma samples for each compound from the in vivo studies were extracted by mixing 350 μl ethyl acetate with 15 μl of plasma sample and 35 μl of universal buffer containing internal standard at pH 8. The samples were vortexed for 1 min and centrifuged for 5 min, and the organic layer was then transferred and evaporated under a gentle stream of nitrogen at room temperature for 30 min. The dried samples were each reconstituted in the mobile phase, and a 5 μl sample was injected for LC-MS/MS analysis.
LC-MS/MS analysis. For all the artemisinins except the arylurea 10, gradient chromatography was performed on a Phenomenex (Torrance, CA, USA) Luna PFP(2) analytical column (100 Å, 5 μm, 2 by 50 mm) and an AB Sciex API 5500 mass spectrometer which was operated at unit resolution in the multiple reaction monitoring (MRM) mode. The HPLC method used was a gradient method with 5 mM ammonium acetate and 0.1% acetic acid in water as the aqueous phase and a mixture of acetonitrile and methanol (1:1 vol/vol) containing 5% of the aqueous phase as the organic phase ([89]). The arylurea 10 was analyzed using a Phenomenex Gemini NX-C18 (5 μm, 2.1 mm by 50 mm) column with an AB Sciex 3200 QTRAP mass spectrometer operated at unit resolution in the MRM mode. The HPLC method used was a gradient method with 5 mM ammonium acetate and 0.1% acetic acid in water as the aqueous phase and a mixture of acetonitrile and methanol (1:1 vol/vol).

Series [2] has as its system late stage (>90% stage IV and V) P. falciparum NF54 gametocytes. Conditions: cited from earlier work.
Setting [3] is: metabolite formed from i.v. artemiside 5, 10 mg/kg.
Where [4] appears, read: 10 mg/kg, i.v. 10 mg/kg, total plasma clearance.
Setting [5] is: Table S3, ± SEM, ref 1 and 2 (supplement; main text 47, 48), read-out: Late Stage (LG, Luc 72 h) IC50.
The mark [6] stands for this setting: Table S4, n = 1, ref 4 (supplement; main text 62), read-out: Late stage IC50 (Luciferase 72 h).

SMILES strings stand for the structures. Read-outs that look alike come from different tables or passages of the source.

A word on the half-life: it is the time in which the quantity being followed falls by half. A high value points to slow decline. As a reminder, the CLint scaled is a measure of how fast metabolising enzymes remove a compound, apart from limits set by blood flow. Usually IC50 stands for the midpoint of a concentration-inhibition curve.

Take `C[C@H]1[C@H](N2C=CS(=O)(=O)CC2)O[C@@H]2O[C@@]3(C)CC[C@H]4[C@H](C)CC[C@@H]1[C@@]24OO3` [M1 12]: the AUC of metabolite amounted to 13.8 ± 9 min/µmol/L in series [1] (setting [3]) and 60.6 ± 36 min/µmol/L in series [1] (metabolite formed from i.v. artemisone, 10 mg/kg).

On to `C[C@H]1[C@H](N2CCSCC2)O[C@@H]2O[C@@]3(C)CC[C@H]4[C@H](C)CC[C@@H]1[C@@]24OO3` [Artemiside 5, artemiside], for which, in series [1] (i.v. 10 mg/kg), the AUC stood at 184.9 ± 43 min/µmol/L, the V was 24.3 ± 9.3 L/kg and the half-life was 1.8 ± 0.5 h. The CLtot in series [1] (i.v. 10 mg/kg, total plasma clearance, 10 mg/kg) came out at 155.0 ± 46.4 mL/min/kg. In series [1] (10 mg/kg), this molecule gave a CLint scaled of 674 mL/min/kg. Also, in series [1] (setting [4]), the clearance was 130 mL/min/kg. The “DHA detected as a metabolite” value in series [1] is “not detected”. The IC50 in series [2] (setting [5]) was 1.5 ± 0.5 nM.

For the molecule `C[C@H]1[C@H](N2CCS(=O)(=O)CC2)O[C@@H]2O[C@@]3(C)CC[C@H]4[C@H](C)CC[C@@H]1[C@@]24OO3` [Artemisone 6, artemisone], in series [1] (i.v. 10 mg/kg), the AUC came to 577.5 ± 30 min/µmol/L, the V amounted to 1.9 ± 0.1 L/kg and the half-life was 0.5 ± 0.03 h. The molecule further returned a CLint scaled in series [1] (10 mg/kg) of 302 mL/min/kg. Besides, the clearance in series [1] (setting [4]) was determined as 42.3 ± 2.1 mL/min/kg. Besides, the AUC of metabolite in series [1] (setting [3]) worked out at 28.9 ± 1 min/µmol/L. The “DHA detected as a metabolite” value in series [1] was “not detected”. Moreover, the IC50 in series [2] (setting [5]) is 42.4 ± 3.3 nM.

As for `CO[C@H]1O[C@@H]2O[C@@]3(C)CC[C@H]4[C@H](C)CC[C@@H]([C@H]1C)[C@@]24OO3` [Artemether 3, artemether], in series [1] (i.v. 10 mg/kg), the AUC amounted to 304.4 ± 80 min/µmol/L, the V was 14.1 ± 1.3 L/kg and the half-life is 1.4 ± 0.2 h. The molecule further had a CLint scaled in series [1] (10 mg/kg) of 855 mL/min/kg. The clearance in series [1] (setting [4]) came out at 120 ± 39 mL/min/kg. The IC50 in series [2] (setting [6]) is 224 nM.

For the molecule `C[C@H]1[C@H](NS(N)(=O)=O)O[C@@H]2O[C@@]3(C)CC[C@H]4[C@H](C)CC[C@@H]1[C@@]24OO3` [Sulfamide 7], in series [1] (i.v. 10 mg/kg), the AUC stood at 864.1 ± 213 min/µmol/L, the V came out at 1.63 ± 0.4 L/kg and the half-life was 0.6 ± 0.1 h. In series [1] (10 mg/kg), this molecule returned an intrinsic metabolic clearance (CLint scaled) of 189 mL/min/kg. In series [1] (setting [4]), the clearance turned out to be 32.2 ± 6.2 mL/min/kg. For the same molecule, the “DHA detected as a metabolite” value in series [1] is “not detected”. The IC50 in series [2] (setting [5]) was 419 nM.

Consider `C[C@@H]1CC[C@H]2[C@@H](C)C(=O)N[C@@H]3O[C@@]4(C)CC[C@@H]1[C@]32OO4` [11-Aza-artemisinin 11, 11-aza-artemisinin], for which, in series [1] (i.v. 10 mg/kg), the AUC was found to be 462.7 ± 117 min/µmol/L, the V was 19.4 ± 7.5 L/kg and the half-life is 3.1 ± 0.8 h. The CLint scaled in series [1] (10 mg/kg) turned out to be 577 mL/min/kg. The clearance in series [1] (setting [4]) stood at 75 ± 8.9 mL/min/kg. For the same molecule, the “DHA detected as a metabolite” value in series [1] (listed as 11-Aza-artemisinin) is on record as “could not be detected”. Moreover, in series [1] (listed as 11-aza-artemisinin), the “DHA detected as a metabolite” value was “not detected”. The IC50 in series [2] (setting [6]) was 166 nM.

For `C[C@H]1[C@@H](O)O[C@@H]2O[C@@]3(C)CC[C@H]4[C@H](C)CC[C@@H]1[C@@]24OO3` [DHA 2, dihydroartemisinin], the AUC of metabolite in series [1] (metabolite formed from i.v. artemether 3, 10 mg/kg) is 155 ± 17 min/µmol/L. Also, in series [2] (setting [5]), the IC50 is 33.7 ± 1.98 nM.

On to `C[C@H]1[C@H](N2CCN(C(=O)Nc3ccc(F)cc3)CC2)O[C@@H]2O[C@@]3(C)CC[C@H]4[C@H](C)CC[C@@H]1[C@@]24OO3` [Arylurea 10], for which, in series [1] (i.v. 10 mg/kg), the AUC turned out to be 315.9 ± 33 min/µmol/L, the V is 6.92 ± 2.9 L/kg and the half-life was 1.3 ± 0.3 h. This molecule also showed a CLint scaled in series [1] (10 mg/kg) of 2940 mL/min/kg. Also, the clearance in series [1] (setting [4]) worked out at 58.9 ± 3.5 mL/min/kg. In addition, in series [2] (setting [5]), the IC50 is 17 ± 7 nM.

Values taken from publication PMC8284440, “Toward New Transmission-Blocking Combination Therapies: Pharmacokinetics of 10-Amino-Artemisinins and 11-Aza-Artemisinin and Comparison with Dihydroartemisinin and Artemether” (Antimicrobial Agents and Chemotherapy, 2021).
